According to ChEMBL document CHEMBL1201862, “PubChem BioAssay data set” (2004):
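Following 48 hours of exposure in 96-well plates, responses at five concentrations were used to interpolate endpoints linearly. GI50 is the concentration that inhibits growth by half.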 The source made the active and inactive calls. No stated cut-off is given here; in the data, active = GI50 up to about 1.1 µM and inactive = higher.

Key:
Assay in all cases: growth of human tumour cells (NCI), 48 h
SF-295 = tested on: SF-295
IGROV-1 = tested on: IGROV-1
CAKI-1 = tested on: CAKI-1
SK-OV-3 = tested on: SK-OV-3
NCI-H23 = tested on: NCI-H23
T47D = tested on: T47D
K562 = tested on: K562
UACC-257 = tested on: UACC-257
OVCAR-5 = tested on: OVCAR-5
U-251 = tested on: U-251
HL-60 = tested on: HL-60
KM-20L2 = tested on: KM-20L2
NCI/ADR-RES = tested on: NCI/ADR-RES
RXF 393 = tested on: RXF 393
HOP-62 = tested on: HOP-62
HCT-116 = tested on: HCT-116
MDA-MB-435 = tested on: MDA-MB-435
SK-MEL-5 = tested on: SK-MEL-5
CCRF-CEM = tested on: CCRF-CEM
HOP-92 = tested on: HOP-92

Measured: GI50

CCOC(=O)C(N)CSC(=O)NC (stereo not given)
inactive: SF-295 258 µM | IGROV-1 155 µM | CAKI-1 104 µM | SK-OV-3 286 µM | NCI-H23 112 µM | T47D 133 µM | K562 45.3 µM | UACC-257 208 µM | OVCAR-5 350 µM | U-251 121 µM | HL-60 74 µM | KM-20L2 171 µM | NCI/ADR-RES 89.9 µM | RXF 393 105 µM | HOP-62 154 µM | HCT-116 > 89.7 µM | MDA-MB-435 45 µM | SK-MEL-5 116 µM | CCRF-CEM 49.3 µM | HOP-92 98.4 µM
